Reference: US10993923B2, “Method for ameliorating fibrosis using 1-[4-chloro-3-(trifluoromethyl)phenyl]-3-[3-(4-cyanophenoxy)phenyl]urea” (priority 2016, dated 2021)

How the values were obtained:
[1] = system: human lung epithelial cells (A549 cell line); assay: TGF-β1-induced epithelial mesenchymal transition (EMT) in A549 cells; format: cell-based
Protocol: Murine NIH3T3 fibroblasts and human lung epithelial cells (A549 cells) were purchased from the Bioresource Collection and Research Center (Hsinchu, Taiwan). Cells were cultured in Dulbecco's modified eagle medium (DMEM) containing 10% fetal bovine serum (FBS), 100 μg/mL penicillin, 100 μg/mL streptomycin. Cells were cultured at 37° C. in a humidified atmosphere of 5% CO2 and passaged every 4 to 5 days at 1:4 ratios.
Whole-cell extracts were obtained via RIPA buffer (Millipore, USA) and protein concentrations were quantified via a BCA protein assay kit (Thermo Fisher Scientific, USA). 20 or 25 μg of protein was added to various percentages of SDS-sodium dodecyl sulfate-acrylamide gel and blotted onto a polyvinylidene fluoride (PVDF) membrane. The membrane was then reacted with a primary antibody; after extensive washing, the membrane was reacted with a […] containing a second antibody. Proteins were detected by Immobilon Western Chemiluminescent HRP substrate (Millipore, USA) or ECL detection system (UVP Corporation, USA).
Antibodies for immunoblotting techniques such as anti-E-cadherin, anti-Fibronectin, anti-N-cadherin were purchased from Abcam (UK). Other antibodies such as anti-SHP-1, anti-phosphorylated STAT3(Tyr705), anti-STAT3α-smooth muscle actin (α-SMA) and anti-caspase-9 were purchased from Cell Signaling Corporation ([…], United States).
Smart-pool siRNA, including control (sc-37007) siRNA, siRNA anti-SHP-1, and STAT3, were purchased from Santa Cruz Biotechnology (California, USA).

[2] = system: bleomycin-induced pulmonary fibrosis in mice; assay: Bleomycin-induced pulmonary fibrosis in mice; format: in vivo
Protocol: Male C57BL/6J mice (6-8 weeks of age) were obtained from the National Laboratory Animal Center (Taipei, Taiwan). All experimental procedures using these mice were performed according to protocols approved by the Institutional Laboratory Animal Care and Use Committee of Cardinal Tien Hospital. Each mouse was housed in cages (IVC; individual ventilation cage), and given daily photoperiod for 12 hours. Room temperature was maintained at 22-25° C., and humidity was maintained at 60 to 70%. Ventilation rate was remained at 16-18 times/hour. Food and drinking water (Altromin 1326 mice feed, Altromin, Germany) was freely given. All operations were executed in accordance with the standards of animal experimental animal operation of law. Management and feeding of animals were in compliant with guidance for care and use of laboratory (NRC 1996) rule approach implementation.
Pulmonary fibrosis was induced using bleomycin sulfate in male C57BL/6J mice (FIG. 1). The mice were intraperitoneally injected (IP) under anesthesia with Avertin (240 mg/Kg). On day 0 (n=20), a single dose of bleomycin (BLM) (1 mg=1000 IU, clinical level, Bleomycine Bellon, Sanofi-Aventis, France) was received in the mice (3.5 mg/kg) via intranasal instillation. The mice in the control group (n=10) were given saline only. On day 14 after intranasal BLM instillation, BLM treated mice were randomized into two groups receiving vehicle or 1-[4-chloro-3-(trifluoromethyl)phenyl]-3-[3-(4-cyanophenoxy)phenyl]urea until the end of the experiment. From day 14 to day 28, mice were administered intraperitoneally with 7.5 mg/kg/day of 1-[4-chloro-3-(trifluoromethyl)phenyl]-3-[3-(4-cyanophenoxy)phenyl]urea daily at a dose of 10 mL/kg body weight. The experimental time was 28 days and the 1-[4-chloro-3-(trifluoromethyl)phenyl]-3-[3-(4-cyanophenoxy)phenyl]urea compound was administered within 14 to 28 days.
The paraffin embedded tissue array blocks were cut into 4-μm-thick sections for H&E staining. For each case, carcinoma type, cell differentiation, growth pattern, tumor cell nuclear morphology, metaplasia, calcification, necrosis, mitosis count, invasion status and other specific differentiations were re-checked by two pathologists Immunohistochemical (IHC) staining was performed using a Ventana BenchMark XT automated stainer (Ventana, Tucson, Ariz.). Briefly, 4-μm-thick sections were cut consecutively from formalin-fixed, paraffin-embedded tissue. These sections were then mounted on silanized slides and allowed to dry overnight at 37° C. After deparaffinization and rehydration, the slides were incubated with 3% hydrogen peroxide solution for 5 minutes. After being washed with the supplied buffer, the tissue sections were repaired for 40 minutes with ethylenediamine tetraacetic acid.
Hydroxyproline analysis was performed using a hydroxyproline test kit following the manufacturer's instructions (Cell BioLabs, Inc., USA). Lung tissue was hydrolyzed in 12N HCl at 120° C. for 3 hours, and then washed and suspended in H2O. The tissue suspension was then mixed with chloramine-T at room temperature for 30 minutes. Then Ehrlich's reagent was added and reacted at 60° C. for 90 minutes. After that, the absorbance at 540 nm was measured.
Mice lung collagen was measured in lung homogenate using a Sircol assay (Biocolor, UK) following the manufacturer's instructions. Briefly, lung tissue homogenates were mixed with Sircol dye and centrifuged. The precipitate was resuspended in NaOH and the absorbance at 550 nm was measured. The absorbance obtained is directly proportional to the concentration of the recently synthesized collagen.
Whole-cell extracts were obtained via RIPA buffer (Millipore, USA) and protein concentrations were quantified via a BCA protein assay kit (Thermo Fisher Scientific, USA). 20 or 25 μg of protein was added to various percentages of SDS-sodium dodecyl sulfate-acrylamide gel and blotted onto a polyvinylidene fluoride (PVDF) membrane. […]

[3] = system: BDL-induced cholestasis fibrosis in mice; assay: Bile duct ligation (BDL) fibrosis mice prevention model; format: in vivo, Balb/C mice; details: 10 mg/kg from day 1 until sacrifice on day 14 of BDL; FIG. 13A, 13B
From the text: In the bile duct ligation (BDL) mouse model, the common bile duct of Balb/C mice was double-ligated and excised. Mice were fed daily with vehicle or 1-[4-chloro-3-(trifluoromethyl)phenyl]-3-[3-(4-cyanophenoxy)phenyl]urea on day 1 or day 8 until they were sacrificed on day 14.
The mice liver samples were stored in 10% formaldehyde, dehydrated with gradient alcohol, embedded in paraffin blocks, sectioned to a thickness of 3 μm, placed on glass slides, and stained with Picrosirius Red Stain kit (ScyTek, USA), following the manufacturer's instructions. The severity of liver fibrosis was graded according to the Ishak fibrosis score. Quantitative collagen-positive area (qCPA) was determined by densitometry via ImageJ software. Hepatic hydroxyproline concentrations were measured by the hydroxyproline assay kit (Biovision, USA), following the manufacturer's instructions Immunohistochemistry was performed by the Leica BOND-MAX automatic chromatograph (Leica Biosystems, Germany), following the manufacturer's instructions.

[4] = Western blot, bleomycin model after treatment, FIG. 6

N#Cc1ccc(Oc2cccc(NC(=O)Nc3ccc(Cl)c(C(F)(F)F)c3)c2)cc1 [1-[4-chloro-3-(trifluoromethyl)phenyl]-3-[3-(4-cyanophenoxy)phenyl]urea]
effects of the compound (p-STAT3, EMT marker, migration and invasion) after SHP-1 knock out with siRNA ([1]; A549, FIG. 9B): offset the effects | effects of the compound (EMT marker, migration and invasion) after STAT3 knock out ([1]; A549, FIG. 9C): offset the effects | TGF-β1-induced EMT (EMT marker profile) ([1]; A549 exposed to TGF-β1, FIG. 8B): reversed TGF-β1-induced EMT in a dose-dependent manner | migration and invasion of cells ([1]; A549 exposed to TGF-β1, FIGS. 8C and 8D): reduced | tolerability (drug-related adverse events) ([2]; 7.5 mg/kg dose, daily, day 14 to day 28 after bleomycin): well tolerated | fibrin deposition (Masson's trichrome staining positive area) ([2]; 7.5 mg/kg/day, day 14 to 28, FIG. 3): significantly reduced | pathological changes of lung sections (hematoxylin-eosin staining) ([2]; 7.5 mg/kg/day, day 14 to 28, versus BLM group, FIG. 2): significantly improved | collagen content of mice lung ([2]; Sircol assay, 7.5 mg/kg/day, day 14 to 28, FIG. 5): improved the accumulation of collagen | P-STAT3 [2, 4]: decreased | amount of fibronectin [2, 4]: decreased | expression level of E-cadherin [2, 4]: increased | decrease of hydroxyproline (Hyp) content compared with the BLM group ([2]; lung tissue, 7.5 mg/kg/day, day 14 to 28, FIG. 4): about 22% | quantitative collagen-positive area (qCPA) [3]: significantly reduced
